Entries after “also recorded” stand apart in the source; their conditions may differ.
Experiments:
[1] = tested on: apoptosis-specific nucleosomes; experiment: Nucleosome ELISA in lung of RSV infected BALB/c mice; type: in vivo; settings: oral and subcutaneous DIM, FIG. 5B
Experimental: (§1) The Following Experimental BALB/c Groups and Treatment Protocol Using DIM were Studied: • 1. RSV infected positive control group, infected with RSV and injected subcutaneously (SC) once daily with DMSO/Phosphate Buffered Saline (PBS) vehicle. • 2. RSV infected, Low dose Parenteral DIM group (15 mg/kg/day), injected SC once daily with DIM suspension • 3. RSV infected, High dose DIM Group (150 mg/kg/day), injected SC once daily with DIM suspension • 4. RSV infected, orally treated DIM group (250 mg/kg/day from absorption enhanced DIM [Example 6.1]), added to powdered feed • 5. Uninfected negative control group, nasally administered vehicle only, and injected subcutaneously (SC) once daily with DMSO/PBS vehicle
(§2) Mouse treatment, infection and harvest. Intranasal application of RSV in BALB/c mice followed an established procedure (Bitko et al., 2005, Nat Med. 11(1):50-5) and causes predictable pulmonary disease and inflammation. For RSV infection, RSV stock was diluted such that each mouse was given 10^7 pfu (plaque forming unit) of the virus intranasally. […]
Nucleosomes released in the cytoplasm during apoptosis were detected by a nucleosome ELISA assay kit (Calbiochem Nucleosome ELISA kit, Cat. No. QIA25, San Diego, Calif.) according to the manufacturer's protocol (User Protocol Q1A25 Rev. 28 Sep. 2005 RFH).

[2] = tested on: Recombinant RSV virus producing green fluorescent protein (gRSV); experiment: Intracellular RSV growth, real-time fluorescence of GFP-producing RSV (gRSV) in A549 cells; type: cell-based, Respiratory Syncytial Virus; settings: cultured A549 cells; beginning 12 hours after addition of nM DIM (70, 210, 700 nM); FIG. 3
From the text: Levels of Intracellular RSV Growth—A real-time fluorescence measurement of live infected cells was utilized to determine the intracellular levels of RSV. Quantitation of real-time RSV growth in live cells was accomplished using a strain of RSV virus which produces florescent protein. Recombinant RSV virus producing green fluorescent protein (GFP) (‘green RSV’, abbreviated as ‘gRSV’) was kindly provided by Dr. Mark Peeples (Columbus Children's Res. Inst., Ohio). A549 cell monolayers were infected with the gRSV in the presence of indicated concentrations of DIM, and were periodically observed by fluorescence microscopy. For quantification, the fluorescence was measured in a standard plate-reader.

rainbow trout = settings: cited from earlier work
RSV Long strain = experiment: Respiratory rate in RSV infected BALB/c mice; type: in vivo; settings: oral, SC low dose and SC high dose DIM; 6 and 10 days pi; vs RSV-infected, untreated control mice; FIG. 6
Experimental: as §1, §2
Pulmonary viral assay and clinical measurements. […] Respiratory rates (breaths per min) were determined by counting over a period of 2-3 mins. […]

[3] = water and lipid; cited from earlier work
cysteinyl leukotrienes = experiment: Cysteinyl leukotrienes ELISA in bronchoalveolar lavage fluid (BALF) of RSV infected BALB/c mice; type: in vivo; settings: oral, SC low dose and SC high dose DIM; 6 and 10 days pi; vs RSV-infected, untreated mice; FIG. 7
Experimental: as §1
Mouse treatment, infection and harvest. […]
To determine viral titer, the lung was homogenized in DMEM supplemented with 2% FBS (2 ml DMEM per 100 mg tissue) in cold. […] Multiple, 4 μm thick sections were stained with haematoxylin & eosin (H&E) and scored for cellular inflammation under light microscopy by two independent researchers. Inflammatory infiltrates were scored by enumerating the layers of inflammatory cells surrounding the vessels and bronchioles. […] A total of about 20 spaces per lung were counted for each animal. […] The concentration of cysteinyl leukotrienes conjugates in the BALF was determined by an ELISA kit following the manufacturer's protocol (R&D Systems, Minneapolis, Minn.). […]

[4] = tested on: estrogen-dependent and independent breast cancer cells; settings: isolated DIM in cell culture; cited from earlier work
bRSV = experiment: Experimental bovine Respiratory Syncytial Virus (bRSV) infection in calves; type: in vivo, Male Jersey calves; settings: vs vehicle only treated positive control animals
Caspase-3 = Caspase-3 activation in RSV infected A549 cell culture; type: cell-based, human; settings: RSV infected A549 cells; DIM 70, 210, and 700 nM

SMILES: c1ccc2c(Cc3c[nH]c4ccccc34)c[nH]c2c1 [DIM, 3,3′-diindolylmethane]
- apoptosis in mouse lung: apoptosis-specific nucleosomes [1]: increased presenence of apoptosis-specific nucleosomes
- intracellular RSV activity (growth) [2]: reduced intracellular RSV growth; also recorded: significantly reduced
- estrogenic activity (rainbow trout): estrogenic
- respiratory rate (RSV Long strain): normalized respiratory rate; also recorded: lower respiratory rate
- solubility [3]: low solubility
- leukotrienes in broncho-alveolar lung fluid (BALF) (cysteinyl leukotrienes): significant reduction in leukotriene levels; also recorded: Reduction in pulmonary leukotriene levels; also recorded: significantly lower levels of lung inflammation associated leukotrienes
- apoptosis effects [4]: apoptosis promoting effects
- evidence of active bRSV infection (bRSV): less evidence of active bRSV infection
- time of culture at which apoptosis specific Caspase-3 is activated (Caspase-3): less than 12 hrs

— patent publication US8552052B2, “Use of diindolylmethane-related indoles for the treatment and prevention of respiratory syncytial virus associated conditions” (BioResponse, L.L.C., priority 2004, dated 2013)
